For this test, the system named is Human induced pluripotent stem cells (hPSCs). Description: 3D dopaminergic neuron differentiation of hPSCs with tyrosine hydroxylase immunocytochemistry. It is filed as cell-based. The conditions noted are these: for expression of tyrosine hydroxylase in differentiating aggregates: by day 20, immunocytochemistry, FGF8, TGF-β, BDNF, GDNF removed and replaced with BT-13 or Q525, FIGS. 3 and 5; for production of hPSC-derived neurons expressing the functional biomarker Tyrosine Hydroxylase: replacement of GDNF, BDNF and TGF-β in maturation media from Day 11, BT-13 5 μM or Q525 5 nM, with DAPT 10 uM, 3D AXgel. The procedure: Human Pluripotent Stem Cell Culture. Human […] (hPSCs) (ThermoFisher A 18945) were subcultured in monolayer format on a layer of 1% Matrigel and maintained in Essential 8 medium during expansion. At 80% confluency, H9s were passaged using Versene solution and replated at a 1:8 split.
3D hPSC Culture Seeding. hPSCs were dissociated into single cells using Accutase solution and resuspended in Essential 8 (E8) medium containing 10 μM Y-27632 (Rock Inhibitor, RI). hPSCs were counted and resuspended at defined densities in 11% AXgel on ice. Cells suspended in AXgel were dispensed into a multi-well tissue culture plate and heated to 37° C. for 15 minutes and afterward pre-warmed E8 medium containing 10 μM RI was added to each well. 3D cell suspensions remained in E8 with RI for 2 days (from Day −2 to Day 0).
3D Dopaminergic Neuron Differentiation. Starting Day 0, hPSCs in AXgel were transitioned to differentiation media to induce neural lineage commitment and subsequently specification into midbrain dopaminergic neurons. Starting Day 11, neural precursors were transitioned to maturation media containing GDNF agonist BT-13 (5 μM) or Q525 (5 nM) in place of proteins GDNF, BDNF, and TGF-β. Media formulations were according to Table 2: […]
Immunocytochemistry. At the endpoint of the experiment, cell aggregates were harvested from AXgel by replacing warm media with chilled media and plated on 8-chamber culture slides coated with 10 μg/mL laminin and cultured overnight in the incubator to allow aggregates to adhere to the surface. Aggregates attached to the culture slide were then fixed using 4% paraformaldehyde (PFA) for 15 minutes. Aggregates were washed twice in PBS for 5 minutes each and incubated in 0.25% Triton-X+5% donkey serum in PBS for 10 minutes to permeabilize cells. After permeabilization, aggregates were washed 5 times in 5% donkey serum for 5 minutes each and incubated with primary antibodies of interest diluted in PBS+donkey serum (dilution details in Table 3), and stored overnight at 4° C. After primary staining, aggregates were washed twice in PBS for 5 minutes each and incubated in solution containing the corresponding secondary antibodies (dilution details in Table 3), and incubated at 37° C. for 2 hours. After secondary staining, aggregates were washed twice in PBS for 5 minutes each and culture slides were mounted with a cover slip to be imaged.
Microscopy. Live cell aggregates suspended in AXgel were periodically imaged during the experiment using an EVOS XL Core Imaging System for transmitted light microscopy available in the Cell and Tissue Analysis Facility through QB3-Berkeley. Fixed, stained, and mounted cell aggregates were imaged with a 20× or 40× objective using a Perkin Elmer Opera Phenix automated confocal fluorescence microscope available in the High-Throughput Screening Facility through QB3-Berkeley. Laser exposure time and power was kept constant for a fluorescence channel within an imaging set.

This note sets out measurements from patent publication US20250066722A1, “METHODS FOR PRODUCTION OF FUNCTIONAL NEURONS” (AXENT BIOSCIENCES INC., priority 2021, published 2025).

Consider `CCN(CC)S(=O)(=O)c1ccc(OC)c(N2CCN(C(=O)c3ccc(F)cc3C(F)(F)F)CC2)c1` [BT-13, N,N-diethyl-3-[4-[4-fluoro-2-(trifluoromethyl)-benzoyl]piperazin-1-yl]-4-methoxybenzenesulfonamide], for which the “expression of tyrosine hydroxylase in differentiating aggregates” value was “detected in neuronal cell bodies within all of the differentiating aggregates” and the “production of hPSC-derived neurons expressing the functional biomarker Tyrosine Hydroxylase” value is on record as “sufficient to produce hPSC-derived neurons expressing the functional biomarker Tyrosine Hydroxylase”.

Regarding `O=C1C(Nc2ccc(CO)cc2)=C(O)C(=O)c2ncccc21` [Q525], the “expression of tyrosine hydroxylase in differentiating aggregates” value is reported as “detected in neuronal cell bodies within all of the differentiating aggregates” and the “production of hPSC-derived neurons expressing the functional biomarker Tyrosine Hydroxylase” value is on record as “sufficient to produce hPSC-derived neurons expressing the functional biomarker Tyrosine Hydroxylase”. Further, the “tyrosine hydroxylase-positive neurons (FIG. 5)” value (day 18, 10 nM Q525 in differentiation media free of GDNF, BDNF and TGFβ3, induction media without FGF8) is “tyrosine hydroxylase-positive neurons at day 18”.
